Results as given in patent US20050050594A1, “Tryptophan synthase as a site of herbicide action” (priority 1999, published 2005).

Legend:
[1] = test system: TSβ (Spinacea enzyme); assay: TSβ assay with partially purified spinach enzyme; type: biochemical, Spinacea oleracea; set-up: key: the increase in the number of “+” corresponds to the increase of inhibition; +++++: the increase in the number of “+” corresponds to the increase of inhibition; +++++++: the increase in the number of “+” corresponds to the increase of inhibition; details: determined qualitatively
Description: The assay was conducted in microfuge tubes by the TSβ reaction (indole+L-serine→L-tryptophan+H2O). 100 μL of extract was mixed with 150 μL of 0.4 mM indole, 80 mM serine, 0.03 mM PLP, 0.1 M Tris-Cl buffer pH 7.8, containing 7.5 μL of saturated NaCl. The mixture was incubated at 21° C. for increasing time intervals, from 10 min to several hours. The reaction was terminated by adding 25 μL 1 N NaOH, then 1 mL toluene with mixing, and then centifuging in a microfuge 2 min at 10,000×G to partition remaining indole into the toluene phase and away from the enzyme. Remaining indole was subsequently partitioned into the indole reagent phase and reacted with dimethylaminobenzaldehyde: 500 μL of the toluene layer from the microfuge tubes was mixed with 1 ml of the indole reagent in another tube and allowed to separate for 20 min, then the lower layer was carefully pipetted into a cuvette and its absorbance measured at 540 nm. This part of the assay was conducted as known in the art.
A unique microtiter plate method was also developed to streamline the partitioning steps and data collection. First, the TSβ reaction was performed as above in microfuge tubes. […] The plate was covered by a mylar sheet (to protect the plate reader and avoid evaporation) and absorbance was monitored on the plate reader at 535 nm. […]
TS was partially purified from spinach for use in the TSβ assay. The greatest degree of purification was achieved by homogenizing the tissue, preparing the 30-50% ammonium sulfate fraction and freezing it, thawing it, and applying the dissolved precipitate to an FPLC column (Waters SW300, Waters Corporation, Franklin, Mass.) to separate the TS activity (measured as TSβ) from the bulk of the protein. […] Because of the low yield of the assay of partially purified plant TS, endogenous enzyme was measured in crude extracts or in enzyme preparations involving one or two purification steps. […]

[2] = test system: Arabidopsis thaliana; assay: Herbicidal activity and tryptophan reversal on Arabidopsis grown on agar medium; type: in vivo; set-up: key: 0 - no effect; 9 - total kill; C - chlorotic seedlings 4-6 days after treatment
Description: In this experiment, TS inhibitors were tested on Arabidopsis thaliana grown Murashige minimal organics medium, (obtained from Life Technologies, Grand Island, N.Y.), containing 0.7% agar. Compounds were tested at different concentrations to assess their herbicidal activity.

O=P(O)(O)CCCCSc1ccccc1O [Compound 22, {4-[(o-hydroxyphenyl)thio]butyl}-phosphonic acid]
TSβ (Spinacea enzyme), relative activity [1]: +
herbicidal injury rating ([2]; herbicide 7.8 μM): 0
herbicidal injury rating ([2]; herbicide 16 μM): 1
herbicidal injury rating ([2]; herbicide 31 μM): 1C
herbicidal injury rating ([2]; herbicide 63 μM): 3C
herbicidal injury rating ([2]; herbicide 125 μM): 3C
herbicidal injury rating ([2]; herbicide 250 μM): 3C
herbicidal injury rating ([2]; herbicide 500 μM): 5C
herbicidal injury rating ([2]; herbicide 1000 μM): 6C
herbicidal rating ([2]; herbicide 7.8 mM, no Trp): 5
herbicidal rating ([2]; herbicide 16 mM, no Trp): 5
herbicidal rating ([2]; herbicide 31 mM + 100 μM Trp): 0
herbicidal rating ([2]; herbicide 31 mM, no Trp): 6
herbicidal rating ([2]; herbicide 63 mM + 100 μM Trp): 1
herbicidal rating ([2]; herbicide 63 mM, no Trp): 6
herbicidal rating ([2]; herbicide 125 mM + 100 μM Trp): 3
herbicidal rating ([2]; herbicide 125 mM, no Trp): 6
herbicidal rating ([2]; herbicide 250 mM + 100 μM Trp): 5
herbicidal rating ([2]; herbicide 250 mM, no Trp): 6
herbicidal rating ([2]; herbicide 500 mM + 100 μM Trp): 3
herbicidal rating ([2]; herbicide 500 mM, no Trp): 6
herbicidal rating ([2]; herbicide 1000 mM + 100 μM Trp): 3
herbicidal rating ([2]; herbicide 1000 mM, no Trp): 7
